Data taken from PubChem BioAssay (NCI).
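Five compound concentrations were applied to cells in 96-well plates for 48 hours; endpoints were derived by simple linear interpolation of the resulting dose-response curve. The concentration for 50% growth inhibition is given as GI50. At the TGI there is no net growth.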 *1 amine or outer side, *2 acyl side, *3 side chain or, on linkers, in order; H or OH if unused. Where a SMILES comes first, the peptide text is derived from it. Bridges are numbered along the chain shown (N, C = ends). [ ]: non-standard residue; d: D form. The star is where a group is joined. ξ: configuration not given here. Phe(3,5-F2) = N[C@@H](Cc1cc(F)cc(F)c1)C(=O)O; ξThr(3S) = C[C@H](O[*:3])C(N[*:1])C(=O)[*:2]; X25 = C[C@H]1OCCN([*:1])[C@@H]1C(=O)[*:2]; Pro(4R-Me) = C[C@H]1CN[C@H](C(=O)O)C1; X24 = O=S(=O)(F)Oc1ccc(N*)cc1; CO = O=C([*:1])[*:2]

Columns and labels:
Assay in all cases: inhibition of tumour cell growth, NCI panel, 48 h
[1] = test system: OVCAR-3 ovarian
[2] = test system: KM12 colon
[3] = test system: OVCAR-4 ovarian
[4] = test system: T-47D breast
[5] = test system: UACC-257 melanoma
[6] = test system: SF-268 CNS
[7] = test system: LOX IMVI melanoma
[8] = test system: NCI/ADR-RES ovarian
[9] = test system: U251 CNS
[10] = test system: NCI-H226 lung
[11] = test system: OVCAR-5 ovarian
[12] = test system: A498 renal
[13] = test system: HOP-62 NSCLC
[14] = test system: ACHN renal
[15] = test system: HT29 colon
[16] = test system: SR leukemia
[17] = test system: NCI-H460 lung
[18] = test system: TK-10 renal
[19] = test system: COLO 205 colon
[20] = test system: HCT-116 colon
[21] = test system: HS 578T breast
[22] = test system: SF-539 CNS
[23] = test system: HL-60(TB) leukemia
[24] = test system: 786-0 renal
[25] = test system: DU-145 prostate
[26] = test system: MCF7 breast
[27] = test system: SNB-75 CNS
[28] = test system: HCT-15 colon
[29] = test system: MALME-3M melanoma
[30] = test system: PC-3 prostate
[31] = test system: CCRF-CEM leukemia
[32] = test system: SK-MEL-5 melanoma
[33] = test system: K-562 leukemia
[34] = test system: M14 melanoma
[35] = test system: SK-MEL-28 melanoma
[36] = test system: SF-295 CNS
[37] = test system: MDA-MB-231 breast
[38] = test system: RXF 393 renal
[39] = test system: NCI-H522 lung
[40] = test system: A549 NSCLC
[41] = test system: SNB-19 CNS
[42] = test system: SK-MEL-2 melanoma
[43] = test system: UO-31 renal
[44] = test system: SW-620 colon
[45] = test system: HCC-2998 colon
[46] = test system: HOP-92 NSCLC
[47] = test system: SK-OV-3 ovarian
[48] = test system: SN12C renal
[49] = test system: UACC-62 melanoma
[50] = test system: CAKI-1 renal
[51] = test system: BT-549 breast
[52] = test system: MDA-MB-435
[53] = test system: MOLT-4 leukemia
[54] = test system: RPMI-8226 leukemia
[55] = test system: EKVX NSCLC
[56] = test system: IGROV1 ovarian
[57] = test system: OVCAR-8 ovarian

Structure (SMILES): C[C@@H]1C[C@H]2C(=O)O[C@@H](C)C(NC(=O)[C@H](Cc3cc(F)cc(F)c3)NC(=O)Nc3ccc(OS(=O)(=O)F)cc3)C(=O)N3CCC[C@H]3C(=O)N3CCO[C@H](C)[C@H]3C(=O)N[C@@H](CO)C(=O)N2C1 (stereo partly drawn) ({X24-CO}-[Phe(3,5-F2)][ξThr(3S)]P[X25]S[Pro(4R-Me)]; ester 2-C)
- GI50 [1]: 0.622 µM
- TGI [1]: 23.7 µM
- GI50 [2]: 4.39 µM
- TGI [2]: > 100 µM
- GI50 [3]: 2.38 µM
- TGI [3]: > 100 µM
- GI50 [4]: 0.633 µM
- TGI [4]: > 100 µM
- GI50 [5]: 1.51 µM
- TGI [5]: 8.97 µM
- GI50 [6]: 1.33 µM
- TGI [6]: > 100 µM
- GI50 [7]: 1.41 µM
- TGI [7]: > 100 µM
- GI50 [8]: > 100 µM
- TGI [8]: > 100 µM
- GI50 [9]: 0.769 µM
- TGI [9]: > 100 µM
- GI50 [10]: 2.3 µM
- TGI [10]: 9.41 µM
- GI50 [11]: 3.58 µM
- TGI [11]: 26.8 µM
- GI50 [12]: 3.05 µM
- TGI [12]: 69.4 µM
- GI50 [13]: 2.81 µM
- TGI [13]: > 100 µM
- GI50 [14]: 10.1 µM
- TGI [14]: 35.3 µM
- GI50 [15]: 2.69 µM
- TGI [15]: 18.6 µM
- GI50 [16]: 1.64 µM
- TGI [16]: 29.1 µM
- GI50 [17]: 2.39 µM
- TGI [17]: > 100 µM
- GI50 [18]: 6.22 µM
- TGI [18]: > 100 µM
- GI50 [19]: 0.683 µM
- TGI [19]: 3.17 µM
- GI50 [20]: 0.452 µM
- TGI [20]: 14.3 µM
- GI50 [21]: 0.916 µM
- TGI [21]: > 100 µM
- GI50 [22]: 2.44 µM
- TGI [22]: > 100 µM
- GI50 [23]: 0.335 µM
- TGI [23]: 3.18 µM
- GI50 [24]: 4.54 µM
- TGI [24]: > 100 µM
- GI50 [25]: 3.48 µM
- TGI [25]: > 100 µM
- GI50 [26]: 0.454 µM
- TGI [26]: 64.7 µM
- GI50 [27]: 0.53 µM
- TGI [27]: 7.46 µM
- GI50 [28]: 15.3 µM
- TGI [28]: > 100 µM
- GI50 [29]: 3.23 µM
- TGI [29]: 45.2 µM
- GI50 [30]: 1.01 µM
- TGI [30]: > 100 µM
- GI50 [31]: 0.591 µM
- TGI [31]: > 100 µM
- GI50 [32]: 3.09 µM
- TGI [32]: 11.6 µM
- GI50 [33]: 0.482 µM
- TGI [33]: > 100 µM
- GI50 [34]: 2.76 µM
- TGI [34]: 22.4 µM
- GI50 [35]: 2.3 µM
- TGI [35]: > 100 µM
- GI50 [36]: 3.27 µM
- TGI [36]: 13.1 µM
- GI50 [37]: 0.642 µM
- TGI [37]: 20.4 µM
- GI50 [38]: 3.16 µM
- TGI [38]: 37.2 µM
- GI50 [39]: 0.497 µM
- TGI [39]: 9.3 µM
- GI50 [40]: 4.63 µM
- TGI [40]: > 100 µM
- GI50 [41]: 0.598 µM
- TGI [41]: > 100 µM
- GI50 [42]: 0.419 µM
- TGI [42]: 3.59 µM
- GI50 [43]: 23.7 µM
- TGI [43]: > 100 µM
- GI50 [44]: 1.61 µM
- TGI [44]: > 100 µM
- GI50 [45]: 1.33 µM
- TGI [45]: 18.7 µM
- GI50 [46]: 0.927 µM
- TGI [46]: 7.57 µM
- GI50 [47]: 2.49 µM
- TGI [47]: 8.45 µM
- GI50 [48]: 1.36 µM
- TGI [48]: > 100 µM
- GI50 [49]: 1.75 µM
- TGI [49]: 64.7 µM
- GI50 [50]: 2.79 µM
- TGI [50]: 34.8 µM
- GI50 [51]: 0.853 µM
- TGI [51]: 24.8 µM
- GI50 [52]: 0.589 µM
- TGI [52]: 62 µM
- GI50 [53]: 2.12 µM
- TGI [53]: 29.6 µM
- GI50 [54]: 0.346 µM
- TGI [54]: 2.36 µM
- GI50 [55]: 3.2 µM
- TGI [55]: > 100 µM
- GI50 [56]: 2.67 µM
- TGI [56]: > 100 µM
- GI50 [57]: 2.66 µM
- TGI [57]: > 100 µM
